# In patent publication US20260199289A1, “USE OF GLYCOGEN METABOLISM INHIBITORS FOR THE TREATMENT OF CANCER” (THE UNIVERSITY OF VERMONT AND STATE AGRICULTURAL COLLEGE, priority 2022, published 2026):
# Entries after “also recorded” stand apart in the source; their conditions may differ. Like-named read-outs stand apart in the source and are kept apart here.
# How the values were obtained:
# [1] = test system: 8505C cells; test: Glycogen content (colorimetric assay, TEM) in ATC cells; type: cell-based, human; settings: ATC cells (8505C), CP-91,149 50 μM, 24-hour incubation, colorimetry and TEM
# Procedure: Transmission Electron Microscopy of Glycogen Deposits—Cells were seeded in 10 cm dishes and allowed to adhere overnight. […] Cells were then rinsed with PBS and lifted with trypsin for preparation for TEM as described previously. Thwe et al., “Cell-intrinsic Glycogen Metabolism Supports Early Glycolytic Reprogramming Required for Dendritic Cell Immune Responses,” Cell Metabolism 26:558-567.e555 (2017), which is hereby incorporated by reference in its entirety.
# PYGB RNA Interference—For validating successful PYGB knockdown, 4.0×10^4 cells were plated in 12 well plates containing 0.2% Lipofectamine™ 3000 Transfection Reagent and the indicated concentration of siRNA targeting PYGB or control siRNA in 1 ml CTM. RNA was extracted 72 hours later for RT-qPCR analysis and protein was extracted 96 hours later for immunoblotting. For measuring the effect of PYGB knockdown on cell viability, 1.0×10^3 cells were seeded in 96 well plates with 0.15% Lipofectamine™ 3000 Transfection Reagent and the indicated concentration of siRNA targeting PYGB or control siRNA in 200 μl CTM for 7 days before conducting the SRB assay. For measuring the effect of PYGB knockdown on glycogen content, 6.5×10^5 cells were seeded in 10 cm dishes with 0.2% Lipofectamine™ 3000 Transfection Reagent and the indicated concentration of siRNA targeting PYGB or control siRNA in 10 ml CTM for 4 days preceding cell lysis for glycogen determination.
# Quantification of Levels of Glycogen, Glucose-1-Phosphate, Glucose-6-Phosphate, Lactate, ATP, Glucose, NADPH, and Glutathione—Briefly, cells were seeded in 10 cm dishes (for measuring glycogen and NADPH), 6 well plates (GIP, G6P, lactate, glucose, and glutathione), or 96 well plates (ATP) and allowed to adhere overnight. CTM was aspirated and cells were rinsed with PBS before application of compounds dissolved in CTM for 24 hours, at which point cells were ~90% confluent. CTM was then aspirated, cells were rinsed with PBS, and lysed according to the respective manufacturer protocol (see Table 4) for metabolite analysis.
# [2] = test system: 8505C cells; test: Cell attachment to fibronectin-coated plates; type: cell-based, human; settings: 24 hours of 50 μM CP treatment
# Source text: Cells were washed with PBS and lifted with trypsin.
# [3] = test system: 8505C tumors; test: 8505C xenograft tumor growth in nude mice; type: in vivo, mouse; settings: intraperitoneal, 50 mg/kg CP-91,149, 10 mg/kg sorafenib, 6-7 days a week
# Procedure: Ethics statement and animal modeling—All animal procedures were approved by Institutional Animal Care and Use Committee (IACUC) at the University of Vermont. All animals were maintained in pathogen-free conditions and cared for in accordance with IACUC policies and certification. All surgeries were performed with isoflurane anesthesia. Temperature-controlled post-surgical monitoring was implemented to minimize suffering. Mice carrying anaplastic thyroid tumors were euthanized at designated time points for tumor collection. Signs of ulceration or a maximum individual tumor size of 2000 mm^3 were used as a protocol-enforced endpoint.
# Mice were given food and water ad libitum. […] These doses were based on previous reports.
# [4] = test system: 8505C tumors; test: Staining of excised xenograft tumors (Ki-67, cleaved PARP, PAS glycogen); type: in vivo, mouse
# [5] = test system: 8505C thyrospheres; test: ATC stem cell thyrosphere growth; type: cell-based, human; settings: 8505C stem cells, day 3 compared to day 1
# Source text: Bolf et al., “Thyroid Hormone Receptor Beta Induces a Tumor Suppressive Program in Anaplastic Thyroid Cancer,” Molecular Cancer Research 18(10):1443-1452 (2020), which is hereby incorporated by reference in its entirety. Thyrospheres per well were counted and imaged using a digital camera (Diagnostics Instruments) connected to a Nikon Eclipse TS100 inverted microscope.
# [6] = mouse, in vivo
# Procedure: Four-week-old athymic female nude mice (outbred homozygous nude Foxn1^nu/Foxn1^nu) were purchased from Jackson Laboratory (Bar Harbor, ME, USA) and were allowed to acclimatize for one week. Mice were given food and water ad libitum. Mice were anesthetized using 3% isoflurane delivered at 1.5 L/min, and tumors were established by subcutaneously injecting 1×10^6 8505C cells with a 26G needle in 100 μL of high concentration Matrigel (Corning Inc.) diluted 1:2 with base RPMI-1640 into each flank of 24 mice. One week later, mice were sorted into four treatment groups to achieve approximately equal body weights between mice. […] Pharmacological agents were dissolved in 100% DMSO and diluted daily in 30% DMSO, 40% PEG300, and 30% PBS and incubated at 55° C. for 10 minutes prior to vortexing to encourage complete solubilization. Tumor dimensions were measured with digital calipers, and the volumes were calculated by the following formula: (Π×a×b^2)/6, where a represents the largest diameter and b is the perpendicular diameter. The body weight of each animal was taken twice a week to measure toxicity. Mice were euthanized with carbon dioxide, and the tumors were harvested, fixed with formalin (Thermo Fisher Scientific), and stored at 4° C. prior to slide sectioning and immunofluorescence analysis.
# [7] = test system: 8505C cells; test: RT-qPCR of glucose transporter expression; type: cell-based, human; settings: 50 μM CP-91,149, 24 hours
# Source text: RNA Extraction and Quantitative Real-Time PCR (qRT-PCR)—Total RNA was extracted using RNeasy Plus Kit (Qiagen) according to manufacturer's protocol. cDNA was synthesized using LunaScript® RT SuperMix Kit (New England Biolabs). Gene expression to validate RNA-seq analysis was quantified by qRT-PCR using Luna® Universal qPCR Master Mix (New England Biolabs) on a QuantStudio 3 real-time PCR system (Thermo Fisher Scientific). Fold change in gene expression compared to endogenous controls was calculated using the ddCT method.
# [8] = test system: 8505C cells; test: Immunoblot of apoptosis markers and Ki-67 in ATC cells; type: cell-based, human; settings: for apoptosis (PARP, caspase 9 and caspase 7 cleavage): six hours
# Procedure: Briefly, proteins were isolated from whole cells in lysis buffer (20 mM Tris-HCl (pH 8), 137 mM NaCl, 10% glycerol, 1% Triton X-100, and 2 mM EDTA), quantified via Pierce™ BCA Protein Assay Kit (Thermo Fisher Scientific), and 25 μg protein/sample were resolved by polyacrylamide gel electrophoresis and immobilized onto nitrocellulose membranes. Membranes were blocked with 5% w/v BSA in TBS and 0.1% v/v Tween20 (Gold Bio, St Louis, MO, USA) for one hour at room temperature and incubated with primary antibodies overnight. Membranes were washed with TBS-0.1% Tween20 and secondary antibodies were applied for 1 hour at room temperature in 5% w/v BSA in TBS and 0.1% v/v Tween20. Immunoreactive proteins were detected by enhanced chemiluminescence (Thermo Scientific) on a ChemiDoc XRS+ (Bio-Rad Laboratories). Densitometry analysis was performed using ImageJ.
# [9] = immunofluorescence of excised tumors
smiles,measurement,setting,value
"CN(C)C(=O)[C@H](O)[C@H](Cc1ccccc1)NC(=O)c1cc2cc(Cl)ccc2[nH]1 [CP-91,149, 5-chloro-N-[(2S,3R)-4-(dimethylamino)-3-hydroxy-4-oxo-1-phenylbutan-2-yl]-1H-indole-2-carboxamide]",glycogen content,[1],increased glycogen content; also recorded: causes a buildup of glycogen
same,glycogen content,[1]; listed as CP,significantly increased glycogen content
same,cell attachment to fibronectin-coated plates,[2],inhibits cell attachment
same,cell attachment to fibronectin-coated plates,[2]; listed as CP,inhibited the ability of 8505C cells to attach to fibronectin-coated plates
same,tumor growth,[3],significantly impaired tumor growth in vivo; also recorded: severely blunted ATC tumor growth in vivo; also recorded: restrict ATC tumor growth
same,tumor growth,[3]; listed as CP,notably stunted; also recorded: equally as effective as sorafenib
same,glycogen in tumor tissue (PAS staining),[4]; excised tumors,significantly increased the level of glycogen in the tumor tissue
same,Ki-67 expression in xenograft tumors,[4]; [9],reduction in Ki-67 expression
same,apoptosis (PARP cleavage) in xenograft tumors,[4]; [9],induces apoptosis in vivo
same,apoptosis (PARP cleavage) in xenograft tumors,"[4]; immunofluorescence of excised tumors, listed as CP",profoundly induced apoptosis
same,thyrosphere growth / stem cell response,[5],inhibits 8505C thyrosphere growth
same,thyrosphere growth / stem cell response,[5]; listed as CP,concentration-dependent response
same,toxicity (body weight),[6],low toxicity
same,SLC2A1 (GLUT1) expression,[7]; 149,increases the expression
same,SLC2A3 (GLUT3) expression,[7]; 149,increases the expression
same,SLC2A4 (GLUT4) expression,[7]; 149,increases the expression
same,SLC2A1 (GLUT1) expression,[7]; listed as CP,increase
same,SLC2A3 (GLUT3) expression,[7]; listed as CP,increase
same,SLC2A4 (GLUT4) expression,[7]; listed as CP,did not change
same,proliferation marker Ki-67 expression,[8],inhibits proliferation
same,proliferation marker Ki-67 expression,[8]; listed as CP,reduced expression of the proliferation marker Ki-67
same,"apoptosis (PARP, caspase 9 and caspase 7 cleavage)",[8],induced apoptosis in ATC cells
same,"apoptosis (PARP, caspase 9 and caspase 7 cleavage)",[8]; listed as CP,"significant PARP, caspase 9, and caspase 7 cleavage"
same,"apoptosis (PARP, caspase 9 and caspase 7 cleavage)","[8]; listed as CP-911,49",induces apoptosis
